# Reference: patent US8618065B2 (Max-Planck-Gesellschaft zur Foerderung der Wissenschaften …, priority 2009, dated 2013)
# Experiments:
# OVA/alum-sensitized mice = assay: Asthma studies: ovalbumin sensitization, bronchial lavage, FACS; format: in vivo, mice (BALE/c line)
# Description: An immune response to ovalbumin was provoked by administering ovalbumin together with aluminium hydroxide. The immune response can be tracked with the help of the T helper cells population (CD4+) which has migrated into the bronchial lining and the eosinophilic granulocytes which have migrated in.
# Female mice (BALE/c line) were sensitized by intraperitoneal (i.p.) administration of 50 μg ovalbumin (OVA) dissolved in phosphate buffer (PBS) plus 100 μL aluminium hydroxide (alum) with a total volume of 200 μL per mouse on day 0.100 μg OVA in PBS (50 μL total volume) in each case was then administered intranasally to the OVA/alum-sensitized mice under mild anaesthesia (isoflurane) on days 7 to 10. From these animals groups were formed which additionally received on days 7, 9, and 11 either 250 μg Cs-103 in PBS (i.p.), PBS only (diluent) or no further addition (−). On day 12 all the animals were killed by CO2 exposure and cells of the bronchial tract were obtained by bronchial lavage (BAL) by means of a cannula introduced into the trachea washing three times each with 1 ml cold PBS. The obtained cells of the BAL were then double dyed (a) with Cy-Chrome-conjugated anti-mouse CD4-antibodies and (b) with FITC-conjugated anti-mouse CD62L-antibodies. The cells were then analyzed by means of FACS. Effector/Memory […] T cells were distinguished as CD4^+/CD62L^− lymphocytes and eosinophilic cells with the help of their scattered light properties (FSC/SSC).
# [1] = Toxicity test: leukocyte count in blood and spleen; format: in vivo, mice; conditions: three doses of 250 μg on 1st, 3rd and 5th day, cell count on 6th day; FIGS. 4 and 5
# Description: FIG. 4 the number of leukocytes in the blood before and after administering three doses (1st, 3rd and 5th day) of 250 μg Cs-103 to each animal (determination on the 6th day); and
# FIG. 5 the number of leukocytes in the spleen before and after administering three doses (1st, 3rd and 5th day) of 250 μg Cs-103 to each animal (determination on the 6th day).
# As the leukocyte count in blood and spleen increases in the case of inflammatory diseases, the number of these cells was used as toxicity marker. As FIGS. 4 and 5 show, the selected compound Cs-103 (after administering three doses of 250 μg Cs-103, on the 1st, 3rd and 5th day, and cell count determination on the 6th day) is harmless in this assay.
# [2] = blood cells vs plasma; cited from earlier work
Structure (SMILES),"number of eosinophilic granulocytes in the lung lavage fluid (OVA/alum-sensitized mice; 250 μg Cs-103, FIG. 3)","number of eosinophilic granulocytes which migrated through ovalbumin sensitization into the bronchial lining (OVA/alum-sensitized mice; 250 μg Cs-103, control: OVA-sensitized animals, FIG. 2)","number of CD4-positive T cells which migrated through ovalbumin sensitization into the bronchial lining (OVA/alum-sensitized mice; 250 μg Cs-103 i.p. on days 7, 9, 11, control: OVA-sensitized animals, FIG. 1)",leukocyte count in blood and spleen as toxicity marker [1],concentration in blood cells relative to surrounding plasma [2]
CC[C@@H]1NC(=O)[C@H]([C@H](O)[C@H](C)CCN(CCC(=O)N[C@H](CCC(=O)O)C(=O)N[C@H](CCC(=O)O)C(=O)N[C@H](CCC(=O)O)C(=O)N[C@H](CCC(=O)O)C(=O)N[C@H](CCC(=O)O)C(=O)N[C@H](CCC(=O)O)C(=O)NCC(=O)O)C(C)=O)N(C)C(=O)[C@H](C(C)C)N(C)C(=O)[C@H](CC(C)C)N(C)C(=O)[C@H](CC(C)C)N(C)C(=O)[C@@H](C)NC(=O)[C@H](C)NC(=O)[C@H](CC(C)C)N(C)C(=O)[C@H](C(C)C)NC(=O)[C@H](CC(C)C)N(C)C(=O)CN(C)C1=O [Cs-103],very significantly reduced,very significantly reduced,very significantly reduced,harmless,–
C/C=C/C[C@@H](C)[C@@H](O)[C@H]1C(=O)N[C@@H](CC)C(=O)N(C)CC(=O)N(C)[C@@H](CC(C)C)C(=O)N[C@@H](C(C)C)C(=O)N(C)[C@@H](CC(C)C)C(=O)N[C@@H](C)C(=O)N[C@H](COCCO)C(=O)N(C)[C@@H](CC(C)C)C(=O)N(C)[C@@H](CC(C)C)C(=O)N(C)[C@@H](C(C)C)C(=O)N1C [SDZ IMM 125],–,–,–,–,approximately 8 ×
